Laboratory results: PMC7377239, “Cardiovascular Effects of Polychlorinated Biphenyls and Their Major Metabolites” (Environmental Health Perspectives, 2020)
Structures can show the parent of a compound that is named as a salt. Where two headings read alike, the source gives them in different places.

Test system: iCell cardiomyocytes (human iPSC-derived cardiomyocytes)
Test: Intracellular Ca2+ flux / beating parameters in iCell cardiomyocytes (FLIPR tetra), 90 min or 24 h
Type: cell-based
Details: Homo sapiens, Cardiomyocyte, 0.00 µM = 100.00; for activity at 0.1 µM: 0.10 µM
Outline: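 PODs were defined as the concentration crossing one SD of the vehicle-control means (0.5% DMSO) on four-parameter logistic fits of Ca2+ trace metrics (peak height, frequency, peak-spacing CV, decay/rise ratio). Traces came from 100 s, 8 Hz FLIPR reads at 37 °C on calcium-dye-loaded iCell cardiomyocytes. Before reading, cells were treated for 90 min or 24 h from 5× chemical plates spanning 0.05–500 µM, in triplicate.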

[1] = 1.5 h, read-out: cm.amp.avg.90min
[2] = 1.5 h, read-out: cm.amp.cv.90min
[3] = 1.5 h, read-out: cm.decay.rise.90min
[4] = 1.5 h, read-out: cm.spacing.cv.90min
[5] = 24 h, read-out: cm.amp.avg.24hrs
[6] = 24 h, read-out: cm.amp.cv.24hrs
[7] = 24 h, read-out: cm.decay.rise.24hrs
[8] = 24 h, read-out: cm.spacing.cv.24hrs

`O=S(=O)(O)Oc1cc(Cl)ccc1-c1ccccc1` [2-yl PCB 3 sulfate] gave an activity at 0.01 µM [1] of 107%, an activity at 0.01 µM [2] of 102% and an activity at 0.01 µM (1.5 h, read-out: cm.bpm.90min) of 99.1%. For the same compound, the activity at 0.01 µM [3] was 97.6%, the activity at 0.01 µM [4] was 134% and the activity at 0.1 µM [1] was 107%. It also gave an activity at 0.1 µM [2] of 90.3%, an activity at 0.1 µM (1.5 h, read-out: cm.bpm.90min) of 97.8% and an activity at 0.1 µM [3] of 94.2%. It also gave an activity at 0.1 µM [4] of 100%, an activity at 1 µM [1] of 102% and an activity at 1 µM [2] of 102%. The activity at 1 µM (1.5 h, read-out: cm.bpm.90min) was 96.5%, the activity at 1 µM [3] was 99.3% and the activity at 1 µM [4] was 99.6%. The activity at 10 µM [1] was 106%, the activity at 10 µM [2] was 107% and the activity at 10 µM (1.5 h, read-out: cm.bpm.90min) was 96.5%. For the same compound, the activity at 10 µM [3] was 97.2%, the activity at 10 µM [4] was 90.8% and the activity at 100 µM [1] was 114%. The activity at 100 µM [2] was 117%, the activity at 100 µM (1.5 h, read-out: cm.bpm.90min) was 84% and the activity at 100 µM [3] was 100%. For the same compound, the activity at 100 µM [4] was 99%, the activity at 0.01 µM [5] was 117% and the activity at 0.01 µM [6] was 119%. The activity at 0.01 µM (24 h, read-out: cm.bpm.24hrs) was 111%, the activity at 0.01 µM [7] was 86.8% and the activity at 0.01 µM [8] was 109%. The activity at 0.1 µM [5] was 63.4%, the activity at 0.1 µM [6] was 37.6% and the activity at 0.1 µM (24 h, read-out: cm.bpm.24hrs) was 53.5%. For the same compound, the activity at 0.1 µM [7] was 43.6%, the activity at 0.1 µM [8] was 50.5% and the activity at 1 µM [5] was 0%. It also gave an activity at 1 µM [6] of 0%, an activity at 1 µM (24 h, read-out: cm.bpm.24hrs) of 0% and an activity at 1 µM [7] of 0%. For the same compound, the activity at 1 µM [8] was 0%, the activity at 10 µM [5] was 121% and the activity at 10 µM [6] was 81.4%. The activity at 10 µM (24 h, read-out: cm.bpm.24hrs) was 92.6%, the activity at 10 µM [7] was 98.1% and the activity at 10 µM [8] was 91.4%. For the same compound, the activity at 100 µM [5] was 97.7%, the activity at 100 µM [6] was 85.5% and the activity at 100 µM (24 h, read-out: cm.bpm.24hrs) was 77.3%. The activity at 100 µM [7] was 106% and the activity at 100 µM [8] was 86.6%.
`Oc1ccc(-c2cccc(Cl)c2)cc1Cl` [4-OH PCB11] gave an activity at 0.01 µM [1] of 107%, an activity at 0.01 µM [2] of 101% and an activity at 0.01 µM (1.5 h, read-out: cm.bpm.90min) of 107%. The activity at 0.01 µM [3] was 99.5%, the activity at 0.01 µM [4] was 111% and the activity at 0.1 µM [1] was 96%. It also gave an activity at 0.1 µM [2] of 97.9%, an activity at 0.1 µM (1.5 h, read-out: cm.bpm.90min) of 102% and an activity at 0.1 µM [3] of 94.9%. It also gave an activity at 0.1 µM [4] of 90.9%, an activity at 1 µM [1] of 103% and an activity at 1 µM [2] of 91.8%. It also gave an activity at 1 µM (1.5 h, read-out: cm.bpm.90min) of 99.1%, an activity at 1 µM [3] of 96.5% and an activity at 1 µM [4] of 95.9%. It also gave an activity at 10 µM [1] of 89.2%, an activity at 10 µM [2] of 99% and an activity at 10 µM (1.5 h, read-out: cm.bpm.90min) of 104%. It also gave an activity at 10 µM [3] of 94.9%, an activity at 10 µM [4] of 104% and an activity at 100 µM [1] of 0%. For the same compound, the activity at 100 µM [2] was 0%, the activity at 100 µM (1.5 h, read-out: cm.bpm.90min) was 0% and the activity at 100 µM [3] was 0%. The activity at 100 µM [4] was 0%, the activity at 0.01 µM [5] was 93.8% and the activity at 0.01 µM [6] was 28.6%. It also gave an activity at 0.01 µM (24 h, read-out: cm.bpm.24hrs) of 46.8%, an activity at 0.01 µM [7] of 48.9% and an activity at 0.01 µM [8] of 46.2%. The activity at 0.1 µM [5] was 110%, the activity at 0.1 µM [6] was 104% and the activity at 0.1 µM (24 h, read-out: cm.bpm.24hrs) was 92.6%. For the same compound, the activity at 0.1 µM [7] was 109%, the activity at 0.1 µM [8] was 104% and the activity at 1 µM [5] was 92.2%. It also gave an activity at 1 µM [6] of 98.4%, an activity at 1 µM (24 h, read-out: cm.bpm.24hrs) of 89.7% and an activity at 1 µM [7] of 99.3%. The activity at 1 µM [8] was 89.5%, the activity at 10 µM [5] was 135% and the activity at 10 µM [6] was 67.1%. It also gave an activity at 10 µM (24 h, read-out: cm.bpm.24hrs) of 93.6%, an activity at 10 µM [7] of 106% and an activity at 10 µM [8] of 91.5%. For the same compound, the activity at 100 µM [5] was 0%, the activity at 100 µM [6] was 0% and the activity at 100 µM (24 h, read-out: cm.bpm.24hrs) was 0%. For the same compound, the activity at 100 µM [7] was 0% and the activity at 100 µM [8] was 0%.
